Laboratory results: patent EP1180991B1, “GAMBOGIC ACID DERIVATIVES AS ACTIVATORS OF CASPASES AND INDUCERS OF APOPTOSIS” (Cytovia, Inc., priority 1999, dated 2000)

How the values were obtained:
T47D cells [1] = experiment: Nuclear fragmentation, Syto16 DNA stain (Example 94); format: cell-based, human; settings: 10 µM, 24 h (Fig. 2B)
Method: T47D cells were grown and plated as described in Example 90. The cells were treated with 10 µM of gambogic acid and the plate was incubated for up to 24 h at 37°C in a 5% CO2-95% humidity incubator. At 24 h, the cells were incubated with a live cell nucleic acid stain, Syto16 (Molecular Probes) which stains DNA. After 2 washes with PBS, cells were examined under a fluorescence microscope. […] Nuclear fragmentation is a clear indicator of cellular apoptosis.

HEL cells = settings: Asano et al. 1996; cited from earlier work
Jurkat cells = experiment: PARP cleavage, western blot (Example 98); format: cell-based, human; settings: 2.5 µM, 2 h (Fig. 5A)
Method: (§1) Cleavage of the enzyme poly(ADP)ribose polymerase (PARP) by caspase-3 and related proteases is considered to be one of the molecular hallmarks of caspase-mediated apoptosis. Therefore, the ability of gambogic acid to induce PARP cleavage in four different human tumor cell lines (Jurkat cells, HL-60 cells, T47D cells and PC3 cells) was determined.
(§2) Cells were cultured in complete growth medium containing 10% FBS and treated with gambogic acid at concentrations of 2.5 µM or 5 µM for 2 to 4 h. Control cultures were treated with a drug vehicle (DMSO), or the well-characterized apoptosis inducer, staurosporine. At the end of the apoptosis induction period, the cells were harvested, washed once with PBS, quick-frozen on dry ice, and stored at -80° C. The cells were then lysed in a standard immunoblotting lysis buffer and samples of the lysates were electrophoresed on 4% to 20% gradient polyacrylamide gels. The proteins in the gels were then transferred to PVDF membranes and probed with a commercially-available rabbit polyclonal antibody to PARP.

HL-60 cells = experiment: PARP cleavage, western blot (Example 98); format: cell-based, human; settings: 2.5 µM, 2 h (Fig. 5B)
Method: as §1, §2

MRC-5 = experiment: Inhibition of cell proliferation (GI50) and cell death (LC50), CellTiter 96 (Example 91); format: cell-based, human; settings: Homo sapiens, MRC5; MRC-5 non-transformed fibroblasts; 48 h; dose for 50% inhibition of cell proliferation; read-out: GI50
Method: (§3) T-47D, ZR-75-1, PC-3, human prostate cancer cell line DU-145, human non-small cell lung cancer cell line A-549, human small cell lung cancer cell line SHP-77, HL-60 and MRC-5 cells were grown and harvested as in Example 90. […] The samples were mixed by agitation and incubated at 37° C for 2-4 h in a 5% CO2-95% humidity incubator. […] This determines the possible background absorbance of the test compounds. No absorbance for gambogic acid or its analogs or derivatives was found at 490 nm. After the 2-4 h incubation, the samples were read for absorbance as above (ATest).
(§4) The samples were mixed by agitation and incubated at 37° C for 2-4 h in a 5% CO2-95% humidity incubator. Absorbance was read as above, (AT=0) defining absorbance for initial cell number used as baseline in GI50 determinations and (Amin) defining absorbance for media alone used as baseline in LC50 determinations.
(§5) GI50 (dose for50%inhibition of cell proliferation) 50 = 100 x [(ATest-AT = 0)/(Amax-AT = 0)] [formula] LC50 (dose for50%cell death) 50 = 100 x [(ATest-Amin)/(AT = 0-Amin)] [formula]

[2] = as above; format: cell-based, human; settings: human, mrc-5 cells; MRC-5 non-transformed fibroblasts; 48 h; dose for 50% cell death
Method: as §3, §4, §5

A-549 = experiment: as above; format: cell-based; settings: Homo sapiens, A549, A-549, 48 h
Method: as §3, §4, §5

SHP-77 = experiment: as above; format: cell-based; settings: Homo sapiens, SHP77, SHP-77, 48 h
Method: as §3, §4, §5

HL-60 = experiment: as above; format: cell-based; settings: Homo sapiens, HL-60, 48 h
Method: as §3, §4, §5

PC-3 = experiment: as above; format: cell-based; settings: Homo sapiens, PC-3, 48 h
Method: as §3, §4, §5

T-47D = experiment: as above; format: cell-based; settings: Homo sapiens, T47D, T-47D, 48 h
Method: as §3, §4, §5

ZR-75-1 = experiment: as above; format: cell-based; settings: Homo sapiens, ZR-75-1, 48 h
Method: as §3, §4, §5

DU-145 = experiment: as above; format: cell-based; settings: Homo sapiens, DU-145, 48 h
Method: as §3, §4, §5

PC3 cells = experiment: PARP cleavage, western blot (Example 98); format: cell-based, human
Method: as §1
(§6) […] Control cultures were treated with a drug vehicle (DMSO), or the well-characterized apoptosis inducer, staurosporine. At the end of the apoptosis induction period, the cells were harvested, washed once with PBS, quick-frozen on dry ice, and stored at -80° C. The cells were then lysed in a standard immunoblotting lysis buffer and samples of the lysates were electrophoresed on 4% to 20% gradient polyacrylamide gels. The proteins in the gels were then transferred to PVDF membranes and probed with a commercially-available rabbit polyclonal antibody to PARP.

T47D cells [3] = experiment: PARP cleavage, western blot (Example 98); format: cell-based, human
Method: as §1, §6

KB-V1 = settings: Lin et al. 1993; cited from earlier work
[4] = dose for 50% cell death, read-out: LC50 (the source's name)
[5] = dose for 50% inhibition of cell proliferation, read-out: GI50

Which results are given for `CC(C)=CCC[C@]1(C)C=Cc2c(O)c3c(c(CC=C(C)C)c2O1)O[C@]12C(=C[C@@H]4C[C@H]1C(C)(C)O[C@@]2(C/C=C(/C)C(=O)O)C4=O)C3=O` [Example 1, Gambogic Acid]?
nuclear fragmentation (T47D cells [1]): condensed and fragmented nuclei in a large population of the cells; cytotoxicity (HEL cells): cytotoxic; PARP cleavage (Jurkat cells): almost complete PARP cleavage; PARP cleavage (HL-60 cells): almost complete PARP cleavage; GI50 (MRC-5): 400 nM; CC50 at 48 h [2]: 500 nM; CC50 (A-549; [4]): 5 µM; GI50 (A-549; [5]): 800 nM; CC50 (SHP-77; [4]): 500 nM; GI50 (SHP-77; [5]): 500 nM; CC50 (HL-60; [4]): 700 nM; GI50 (HL-60; [5]): 500 nM; CC50 (PC-3; [4]): 700 nM; GI50 (PC-3; [5]): 500 nM; CC50 (T-47D; [4]): 450 nM; GI50 (T-47D; [5]): 65 nM; CC50 (ZR-75-1; [4]): 500 nM; GI50 (ZR-75-1; [5]): 400 nM; CC50 (DU-145; [4]): 800 nM; GI50 (DU-145; [5]): 500 nM; PARP cleavage (PC3 cells; 2.5 µM and 5 µM, 2 h (Fig. 5D)): neither concentration (2.5 µM and 5 µM) of drug was effective; PARP cleavage (PC3 cells; 5 µM, 4 h (Fig. 5D)): a moderate amount of PARP cleavage product; PARP cleavage (T47D cells [3]; 2.5 µM and 5 µM, 4 h (Fig. 5C)): almost complete PARP cleavage; PARP cleavage (T47D cells [3]; 2.5 µM, 2 h (Fig. 5C)): moderate induction of PARP cleavage; PARP cleavage (T47D cells [3]; 5 µM, 2 h (Fig. 5C)): almost complete PARP cleavage; cytotoxicity (KB-V1): cytotoxic
